Values after ≈ are worked out from the molar mass of the structure shown.
Experiments:
[1] = system: Enterobacter aerogenes; assay: MIC determination, E. aerogenes; format: cell-based; details: Klebsiella aerogenes; quinolone-resistant, ESBL-expressing clinical isolate; * = arithmetic mean of 2-6 MIC determinations; read-out: MIC (ug/mL) E. aerogenes
Summary of the method: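 Clinical E. aerogenes isolate, quinolone-resistant and ESBL-expressing. MIC measured in vitro by dilution testing according to CLSI guidelines (M7-A7, M100-S18).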

[2] = system: Acinetobacter baumanii/haemolyticus; assay: MIC determination, A. baumanii/haemolyticus; format: cell-based; details: Acinetobacter baumannii; multidrug-resistant clinical isolate; * = arithmetic mean of 2-6 MIC determinations; read-out: MIC (ug/mL) A. baumanii/haemolyticus
Summary of the method: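 MICs were determined by CLSI broth dilution (M7-A7, M100-S18) against a multidrug-resistant clinical isolate of Acinetobacter baumanii/haemolyticus.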

[3] = system: P. aeruginosa UI-18; assay: MIC determination, P. aeruginosa UI-18; format: cell-based; details: Pseudomonas aeruginosa, UI18; wild-type; * = arithmetic mean of 2-6 MIC determinations; read-out: MIC (ug/mL) P. aeruginosa UI-18
Summary of the method: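 MIC by broth dilution following CLSI M7-A7 and M100-S18 guidelines, tested against wild-type P. aeruginosa UI-18.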

[4] = biological target: T1, Pseudomonas aeruginosa LpxC enzyme (Pseudomonas aeruginosa, UniProt P47205); assay: IC50 assay, LpxC enzyme from P. aeruginosa; format: biochemical; details: 0.5 nM enzyme, 25° C., pH 8.0, 20 min; ** = average of 2-8 assays
T1 construct: made in house; host or cells: E. coli
T1 sequence (P47205 1-303): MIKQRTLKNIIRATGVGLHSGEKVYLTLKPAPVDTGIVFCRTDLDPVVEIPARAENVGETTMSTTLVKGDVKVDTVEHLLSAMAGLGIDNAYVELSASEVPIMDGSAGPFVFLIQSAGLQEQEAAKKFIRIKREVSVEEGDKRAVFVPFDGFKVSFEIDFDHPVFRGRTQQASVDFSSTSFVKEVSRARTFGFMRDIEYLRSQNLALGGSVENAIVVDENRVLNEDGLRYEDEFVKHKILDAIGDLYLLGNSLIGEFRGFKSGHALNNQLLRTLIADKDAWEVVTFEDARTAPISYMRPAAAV
Summary of the method: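 P. aeruginosa LpxC (0.5 nM, expressed in E. coli) reacted with 0.5 uM ³H-acetyl-labelled UDP-3-O-(R-3-hydroxydecanoyl)-GlcNAc in 50 mM sodium phosphate pH 8.0 with 1 mg/ml BSA at 25 °C for 20 min. Charcoal stopped the reaction, and filtrate radioactivity was counted by scintillation after no-enzyme background subtraction.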

[5] = system: P. aeruginosa PAO280; assay: MIC determination, P. aeruginosa PAO280; format: cell-based; details: Pseudomonas aeruginosa, PAO280, read-out: MIC (ug/mL) P. aeruginosa PAO280
Summary of the method: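 Broth dilution MIC per CLSI M7-A7/M100-S18 guidelines. Strain PAO280 lacks efflux pumps MexAB-oprM, MexXY and MexZ.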

[6] = system: Klebsiella pneumoniae; assay: MIC determination, K. pneumoniae; format: cell-based; details: ciprofloxacin-resistant, ESBL-expressing clinical isolate, * = arithmetic mean of 2-6 MIC determinations, read-out: MIC (ug/mL) K. pneumoniae
Summary of the method: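 MIC determined by broth dilution per CLSI M7-A7 and M100-S18 guidelines. Strain: ciprofloxacin-resistant, ESBL-expressing clinical isolate of K. pneumoniae.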

[7] = system: Staphylococcus aureus ATCC 29213; assay: MIC determination, S. aureus ATCC 29213; format: cell-based; details: ATCC29213, CLSI quality control reference strain, * = arithmetic mean of 2-6 MIC determinations, read-out: MIC (ug/mL) S. aureus ATCC 29213
Summary of the method: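 MIC was measured by dilution susceptibility testing following CLSI guidelines (M7-A7; M100-S18). The test organism is the CLSI quality-control reference strain.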

[8] = system: Escherichia coli EC-1; assay: MIC determination, E. coli EC-1; format: cell-based; details: EC1, EC-1: VOGEL, * = arithmetic mean of 2-6 MIC determinations, read-out: MIC (ug/mL) E. coli EC-1
Summary of the method: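 Minimum inhibitory concentration against Escherichia coli EC-1 was determined in vitro by dilution susceptibility testing under CLSI M7-A7 and M100-S18 guidelines.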

[9] = system: Serratia marcescens; assay: MIC determination, S. marcescens; format: cell-based; details: multidrug-resistant clinical isolate, * = arithmetic mean of 2-6 MIC determinations, read-out: MIC (ug/mL) S. marcescens
Protocol: MIC determinations: The in vitro antibacterial activity of compounds described in the Examples was evaluated by minimum inhibitory concentration (MIC) testing according to Clinical and Laboratory Standards Institute (CLSI, formerly NCCLS) guidelines. See: Clinical and Laboratory Standards Institute. Methods for Dilution Antimicrobial Susceptibility Tests for Bacteria that Grow Aerobically; Approved Standard-Seventh Edition. CLSI document M7-A7 [ISBN 1-56238-587-9]. Clinical and Laboratory Standards Institute, 940 West Valley Road, Suite 1400, Wayne, Pa. 19087-1898 USA, 2006; also Clinical and Laboratory Standards Institute. Performance Standards for Antimicrobial Susceptibility Testing; Eighteenth Informational Supplement. CLSI document M100-S18 [ISBN1-56238-653-0]. Clinical and Laboratory Standards Institute.
The following bacterial strains were used:
Serratia marcescens: Multidrug-resistant clinical isolate.

| SMILES | MIC [1] | MIC [2] | MIC [3] | IC50 [4] | MIC [5] | MIC [6] | MIC [7] | MIC [8] | MIC [9] | melting point |
| --- | --- | --- | --- | --- | --- | --- | --- | --- | --- | --- |
| C[C@@](OCc1ccc(-c2ccccc2)cc1)(C(=O)NO)[C@@H](O)c1ccccc1 [Example 11, (2S,3S)-2-(biphenyl-4-ylmethoxy)-N,3-dihydroxy-2-methyl-3-phenylpropanamide] | > 64 µg/mL | > 64 µg/mL | > 64 µg/mL | 0.00509 µM | 8 µg/mL (≈ 21.2 µM) | > 64 µg/mL | 32 µg/mL (≈ 84.8 µM) | > 64 µg/mL | > 64 µg/mL | – |
| C[C@@](OCc1ccc(-c2ccccc2)cc1)(C(=O)NO)[C@@H](O)c1cccnc1 [Example 12, (2S,3S)-2-(biphenyl-4-ylmethoxy)-N,3-dihydroxy-2-methyl-3-pyridin-3-ylpropanamide] | > 64 µg/mL | > 64 µg/mL | 32 µg/mL (≈ 84.6 µM) | 0.00181 µM | 0.5 µg/mL (≈ 1.32 µM) | > 64 µg/mL | 32 µg/mL (≈ 84.6 µM) | > 64 µg/mL | > 64 µg/mL | – |
| O=C(NO)C(CO)(OCc1ccc(-c2ccccc2)cc1)C(F)(F)F (stereo not shown) [Example 50, 2-(biphenyl-4-ylmethoxy)-3,3,3-trifluoro-N-hydroxy-2-(hydroxymethyl)propanamide] | > 64 µg/mL | > 64 µg/mL | 48 µg/mL (≈ 135 µM) | 0.0147 µM | 1 µg/mL (≈ 2.81 µM) | > 64 µg/mL | > 64 µg/mL | > 64 µg/mL | > 64 µg/mL | – |
| CC(OCc1ccc(-c2ccccc2)cc1)C(=O)NO (stereo not shown) [Example 54, 2-(biphenyl-4-ylmethoxy)-N-hydroxypropanamide] | > 64 µg/mL | > 64 µg/mL | > 64 µg/mL | 0.406 µM | 32 µg/mL (≈ 118 µM) | > 64 µg/mL | > 64 µg/mL | > 64 µg/mL | > 64 µg/mL | 120 to 123 °C |
| COCC(CO)(OCc1ccc(-c2ccccc2)cc1)C(=O)NO (stereo not shown) [Example 56, 2-(biphenyl-4-ylmethoxy)-N,3-dihydroxy-2-(methoxymethyl)propanamide] | > 64 µg/mL | > 64 µg/mL | > 64 µg/mL | 0.0222 µM | 4 µg/mL (≈ 12.1 µM) | > 64 µg/mL | > 64 µg/mL | > 64 µg/mL | > 64 µg/mL | – |
| O=C(NO)C1(OCc2ccc(-c3ccccc3)cc2)CCOCC1 [Example 58, 4-(biphenyl-4-ylmethoxy)-N-hydroxytetrahydro-2H-pyran-4-carboxamide] | > 64 µg/mL | > 64 µg/mL | > 64 µg/mL | 0.04 µM | 4 µg/mL (≈ 12.2 µM) | > 64 µg/mL | > 64 µg/mL | > 64 µg/mL | > 64 µg/mL | – |
| O=C(NO)C(CO)(CO)OCc1ccc(-c2ccccc2)cc1 [Example 91, 2-(biphenyl-4-ylmethoxy)-N,3-dihydroxy-2-(hydroxymethyl)propanamide] | > 64 µg/mL | > 64 µg/mL | 43 µg/mL (≈ 136 µM) | 0.0108 µM | 1.25 µg/mL (≈ 3.94 µM) | > 64 µg/mL | > 64 µg/mL | > 64 µg/mL | > 64 µg/mL | – |
| O=C(NO)C(CO)(CCO)OCc1ccc(-c2ccccc2)cc1 (stereo not shown) [Example 92] | > 64 µg/mL | > 64 µg/mL | > 64 µg/mL | 0.0134 µM | 2 µg/mL (≈ 6.04 µM) | > 64 µg/mL | > 64 µg/mL | > 64 µg/mL | > 64 µg/mL | – |

Source: patent publication US9340493B2, “Hydroxamic acid derivatives useful as antibacterial agents” (Pfizer Inc., priority 2008, dated 2016)
